Laboratory results taken from PubChem BioAssay (NCI).
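Each compound was tested at five concentrations against cells in 96-well plates for 48 hours. At the GI50, growth is halved. The concentration for full growth arrest is given as TGI.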

Experiments:
Test in all cases: NCI-60 cell line screen, 48 h
[1] = system: HOP-62 NSCLC
[2] = system: ACHN renal
[3] = system: HOP-92 NSCLC
[4] = system: HL-60(TB) leukemia
[5] = system: HS 578T breast
[6] = system: OVCAR-8 ovarian
[7] = system: SK-MEL-28 melanoma
[8] = system: DU-145 prostate
[9] = system: UO-31 renal
[10] = system: SN12C renal
[11] = system: SF-295 CNS
[12] = system: RXF 393 renal
[13] = system: COLO 205 colon
[14] = system: UACC-62 melanoma
[15] = system: HT29 colon
[16] = system: M14 melanoma
[17] = system: MALME-3M melanoma
[18] = system: K-562 leukemia
[19] = system: SK-OV-3 ovarian
[20] = system: SF-539 CNS
[21] = system: TK-10 renal
[22] = system: OVCAR-5 ovarian
[23] = system: OVCAR-3 ovarian
[24] = system: BT-549 breast
[25] = system: NCI-H23 lung
[26] = system: NCI-H460 lung
[27] = system: HCC-2998 colon
[28] = system: MCF7 breast
[29] = system: MDA-MB-435
[30] = system: SNB-75 CNS
[31] = system: U251 CNS
[32] = system: T-47D breast
[33] = system: SF-268 CNS
[34] = system: SW-620 colon
[35] = system: MOLT-4 leukemia
[36] = system: A498 renal
[37] = system: RPMI-8226 leukemia
[38] = system: EKVX NSCLC
[39] = system: KM12 colon
[40] = system: 786-0 renal
[41] = system: SK-MEL-2 melanoma
[42] = system: LOX IMVI melanoma
[43] = system: A549 NSCLC
[44] = system: MDA-MB-231 breast
[45] = system: NCI/ADR-RES ovarian
[46] = system: NCI-H522 lung
[47] = system: IGROV1 ovarian
[48] = system: OVCAR-4 ovarian
[49] = system: NCI-H226 lung
[50] = system: SNB-19 CNS
[51] = system: PC-3 prostate
[52] = system: CCRF-CEM leukemia
[53] = system: UACC-257 melanoma
[54] = system: SR leukemia
[55] = system: SK-MEL-5 melanoma
[56] = system: HCT-116 colon
[57] = system: CAKI-1 renal
[58] = system: HCT-15 colon

`CC(=O)O[C@]1(C(C)=O)CC[C@H]2[C@@H]3C=C(C)C4=CC(=O)CC[C@]4(C)[C@H]3CC[C@@]21C` was tested. Which GI50 [1] did it give?
Its GI50 is over 100 µM.

And the TGI [1]?
Its TGI is over 100 µM.

What about the GI50 [2] of the same compound?
The GI50 was over 74.1 µM.

And the TGI [2]?
The TGI was over 100 µM.

What about the GI50 [3] of the same compound?
Its GI50 is 14.8 µM.

And the TGI [3]?
Its TGI is over 100 µM.

And the GI50 [4]?
The GI50 was 12.8 µM.

What about the TGI [4] of the same compound?
The TGI was 61.6 µM.

What about the GI50 [5] of the same compound?
Its GI50 is over 60.4 µM.

What about the TGI [5] of the same compound?
The TGI was over 100 µM.

And the GI50 [6]?
The GI50 was over 75.4 µM.

What about the TGI [6] of the same compound?
The TGI was over 100 µM.

What about the GI50 [7] of the same compound?
The GI50 was over 100 µM.

What about the TGI [7] of the same compound?
The TGI was over 100 µM.

What about the GI50 [8] of the same compound?
Its GI50 is over 100 µM.

And the TGI [8]?
Its TGI is over 100 µM.

And the GI50 [9]?
The GI50 was over 100 µM.

What about the TGI [9] of the same compound?
The TGI was over 100 µM.

What about the GI50 [10] of the same compound?
The GI50 was over 100 µM.

And the TGI [10]?
Its TGI is over 100 µM.

And the GI50 [11]?
The GI50 was over 83.3 µM.

What about the TGI [11] of the same compound?
The TGI was over 100 µM.

What about the GI50 [12] of the same compound?
Its GI50 is 57.5 µM.

What about the TGI [12] of the same compound?
Its TGI is over 100 µM.

And the GI50 [13]?
Its GI50 is over 100 µM.

What about the TGI [13] of the same compound?
The TGI was over 100 µM.

And the GI50 [14]?
The GI50 was over 71.8 µM.

What about the TGI [14] of the same compound?
Its TGI is over 100 µM.

What about the GI50 [15] of the same compound?
Its GI50 is over 100 µM.

And the TGI [15]?
Its TGI is over 100 µM.

What about the GI50 [16] of the same compound?
Its GI50 is over 85.6 µM.

And the TGI [16]?
The TGI was over 100 µM.

And the GI50 [17]?
The GI50 was over 74 µM.

What about the TGI [17] of the same compound?
Its TGI is over 100 µM.

And the GI50 [18]?
The GI50 was 20.7 µM.

And the TGI [18]?
The TGI was over 100 µM.

And the GI50 [19]?
Its GI50 is over 91.9 µM.

What about the TGI [19] of the same compound?
Its TGI is over 100 µM.

And the GI50 [20]?
Its GI50 is over 61.4 µM.

What about the TGI [20] of the same compound?
Its TGI is over 100 µM.

What about the GI50 [21] of the same compound?
The GI50 was over 77.6 µM.

And the TGI [21]?
The TGI was over 100 µM.

What about the GI50 [22] of the same compound?
Its GI50 is over 100 µM.

What about the TGI [22] of the same compound?
The TGI was over 100 µM.

And the GI50 [23]?
Its GI50 is over 100 µM.

What about the TGI [23] of the same compound?
The TGI was over 100 µM.

And the GI50 [24]?
The GI50 was 37.4 µM.

What about the TGI [24] of the same compound?
Its TGI is over 100 µM.

And the GI50 [25]?
Its GI50 is over 100 µM.

And the TGI [25]?
The TGI was over 100 µM.

What about the GI50 [26] of the same compound?
Its GI50 is 98.5 µM.

What about the TGI [26] of the same compound?
The TGI was over 100 µM.

And the GI50 [27]?
Its GI50 is over 100 µM.

What about the TGI [27] of the same compound?
Its TGI is over 100 µM.

And the GI50 [28]?
Its GI50 is over 100 µM.

What about the TGI [28] of the same compound?
The TGI was over 100 µM.

What about the GI50 [29] of the same compound?
Its GI50 is over 100 µM.

And the TGI [29]?
Its TGI is over 100 µM.

What about the GI50 [30] of the same compound?
Its GI50 is over 59.8 µM.

And the TGI [30]?
The TGI was over 100 µM.

What about the GI50 [31] of the same compound?
The GI50 was over 60.9 µM.

And the TGI [31]?
The TGI was over 100 µM.

What about the GI50 [32] of the same compound?
The GI50 was over 64.7 µM.

What about the TGI [32] of the same compound?
The TGI was over 100 µM.

And the GI50 [33]?
The GI50 was over 92.8 µM.

And the TGI [33]?
The TGI was over 100 µM.

What about the GI50 [34] of the same compound?
The GI50 was over 100 µM.

And the TGI [34]?
Its TGI is over 100 µM.

What about the GI50 [35] of the same compound?
Its GI50 is 43.2 µM.

What about the TGI [35] of the same compound?
The TGI was over 100 µM.

What about the GI50 [36] of the same compound?
Its GI50 is over 75.7 µM.

And the TGI [36]?
The TGI was over 100 µM.

And the GI50 [37]?
The GI50 was 2.78 µM.

What about the TGI [37] of the same compound?
The TGI was over 100 µM.

What about the GI50 [38] of the same compound?
Its GI50 is 21 µM.

What about the TGI [38] of the same compound?
Its TGI is over 100 µM.

What about the GI50 [39] of the same compound?
The GI50 was over 100 µM.

And the TGI [39]?
The TGI was over 100 µM.

What about the GI50 [40] of the same compound?
The GI50 was over 80.7 µM.

And the TGI [40]?
Its TGI is over 100 µM.

And the GI50 [41]?
The GI50 was over 100 µM.

What about the TGI [41] of the same compound?
The TGI was over 100 µM.

And the GI50 [42]?
The GI50 was over 100 µM.

What about the TGI [42] of the same compound?
The TGI was over 100 µM.

What about the GI50 [43] of the same compound?
The GI50 was over 78.1 µM.

And the TGI [43]?
Its TGI is over 100 µM.

What about the GI50 [44] of the same compound?
Its GI50 is over 100 µM.

What about the TGI [44] of the same compound?
Its TGI is over 100 µM.

What about the GI50 [45] of the same compound?
Its GI50 is 46.9 µM.

What about the TGI [45] of the same compound?
Its TGI is over 100 µM.

And the GI50 [46]?
The GI50 was 53.2 µM.

And the TGI [46]?
Its TGI is over 100 µM.

What about the GI50 [47] of the same compound?
Its GI50 is over 100 µM.

And the TGI [47]?
The TGI was over 100 µM.

And the GI50 [48]?
Its GI50 is over 91.5 µM.

And the TGI [48]?
The TGI was over 100 µM.

And the GI50 [49]?
Its GI50 is over 83.7 µM.

And the TGI [49]?
Its TGI is over 100 µM.

What about the GI50 [50] of the same compound?
Its GI50 is over 82.9 µM.

And the TGI [50]?
Its TGI is over 100 µM.

What about the GI50 [51] of the same compound?
The GI50 was 42.6 µM.

And the TGI [51]?
The TGI was over 100 µM.

And the GI50 [52]?
The GI50 was over 80.4 µM.

And the TGI [52]?
Its TGI is over 100 µM.

And the GI50 [53]?
Its GI50 is over 89.2 µM.

And the TGI [53]?
Its TGI is over 100 µM.

And the GI50 [54]?
Its GI50 is over 55.8 µM.

What about the TGI [54] of the same compound?
The TGI was over 100 µM.

What about the GI50 [55] of the same compound?
Its GI50 is 56.3 µM.

What about the TGI [55] of the same compound?
Its TGI is over 100 µM.

And the GI50 [56]?
The GI50 was 28 µM.

And the TGI [56]?
Its TGI is over 100 µM.

And the GI50 [57]?
The GI50 was over 100 µM.

What about the TGI [57] of the same compound?
Its TGI is over 100 µM.

And the GI50 [58]?
The GI50 was over 100 µM.

And the TGI [58]?
Its TGI is over 100 µM.
